Laboratory results as given in PubChem BioAssay (NCI).
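A five-concentration, 48-hour dose response in 96-well plates underlies each endpoint, interpolated linearly between surrounding concentrations. The concentration for full growth arrest is given as TGI.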

Assays:
Test in all cases: NCI-60 cell line screen, 48 h
786-0 renal = tested on: 786-0 renal
A498 renal = tested on: A498 renal
A549 NSCLC = tested on: A549 NSCLC
ACHN renal = tested on: ACHN renal
CAKI-1 renal = tested on: CAKI-1 renal
CCRF-CEM leukemia = tested on: CCRF-CEM leukemia
COLO 205 colon = tested on: COLO 205 colon
DU-145 prostate = tested on: DU-145 prostate
EKVX NSCLC = tested on: EKVX NSCLC
HCC-2998 colon = tested on: HCC-2998 colon
HCT-116 colon = tested on: HCT-116 colon
HCT-15 colon = tested on: HCT-15 colon
HL-60(TB) leukemia = tested on: HL-60(TB) leukemia
HOP-62 NSCLC = tested on: HOP-62 NSCLC
HS 578T breast = tested on: HS 578T breast
HT29 colon = tested on: HT29 colon
IGROV1 ovarian = tested on: IGROV1 ovarian
K-562 leukemia = tested on: K-562 leukemia
KM12 colon = tested on: KM12 colon
LOX IMVI melanoma = tested on: LOX IMVI melanoma
M14 melanoma = tested on: M14 melanoma
MALME-3M melanoma = tested on: MALME-3M melanoma
MCF7 breast = tested on: MCF7 breast
MDA-MB-231 breast = tested on: MDA-MB-231 breast
MDA-MB-435 = tested on: MDA-MB-435
MDA-N = tested on: MDA-N
MOLT-4 leukemia = tested on: MOLT-4 leukemia
NCI-H226 lung = tested on: NCI-H226 lung
NCI-H23 lung = tested on: NCI-H23 lung
NCI-H460 lung = tested on: NCI-H460 lung
NCI-H522 lung = tested on: NCI-H522 lung
NCI/ADR-RES ovarian = tested on: NCI/ADR-RES ovarian
OVCAR-3 ovarian = tested on: OVCAR-3 ovarian
OVCAR-4 ovarian = tested on: OVCAR-4 ovarian
OVCAR-5 ovarian = tested on: OVCAR-5 ovarian
OVCAR-8 ovarian = tested on: OVCAR-8 ovarian
PC-3 prostate = tested on: PC-3 prostate
RPMI-8226 leukemia = tested on: RPMI-8226 leukemia
RXF 393 renal = tested on: RXF 393 renal
SF-268 CNS = tested on: SF-268 CNS
SF-295 CNS = tested on: SF-295 CNS
SF-539 CNS = tested on: SF-539 CNS
SK-MEL-2 melanoma = tested on: SK-MEL-2 melanoma
SK-MEL-28 melanoma = tested on: SK-MEL-28 melanoma
SK-MEL-5 melanoma = tested on: SK-MEL-5 melanoma
SK-OV-3 ovarian = tested on: SK-OV-3 ovarian
SN12C renal = tested on: SN12C renal
SNB-19 CNS = tested on: SNB-19 CNS
SNB-75 CNS = tested on: SNB-75 CNS
SR leukemia = tested on: SR leukemia
SW-620 colon = tested on: SW-620 colon
T-47D breast = tested on: T-47D breast
TK-10 renal = tested on: TK-10 renal
U251 CNS = tested on: U251 CNS
UACC-257 melanoma = tested on: UACC-257 melanoma
UACC-62 melanoma = tested on: UACC-62 melanoma
UO-31 renal = tested on: UO-31 renal
BT-549 breast = tested on: BT-549 breast
HOP-92 NSCLC = tested on: HOP-92 NSCLC

Cc1ccc([N+](=O)[O-])cc1NC1=NCCO1
TGI (786-0 renal): > 100 µM
TGI (A498 renal): > 100 µM
TGI (A549 NSCLC): > 100 µM
TGI (ACHN renal): > 100 µM
TGI (CAKI-1 renal): > 100 µM
TGI (CCRF-CEM leukemia): > 100 µM
TGI (COLO 205 colon): > 100 µM
TGI (DU-145 prostate): > 100 µM
TGI (EKVX NSCLC): > 100 µM
TGI (HCC-2998 colon): > 100 µM
TGI (HCT-116 colon): > 100 µM
TGI (HCT-15 colon): > 100 µM
TGI (HL-60(TB) leukemia): > 100 µM
TGI (HOP-62 NSCLC): > 100 µM
TGI (HS 578T breast): > 100 µM
TGI (HT29 colon): > 100 µM
TGI (IGROV1 ovarian): > 100 µM
TGI (K-562 leukemia): > 100 µM
TGI (KM12 colon): > 100 µM
TGI (LOX IMVI melanoma): > 100 µM
TGI (M14 melanoma): > 100 µM
TGI (MALME-3M melanoma): > 100 µM
TGI (MCF7 breast): > 100 µM
TGI (MDA-MB-231 breast): > 100 µM
TGI (MDA-MB-435): > 100 µM
TGI (MDA-N): > 100 µM
TGI (MOLT-4 leukemia): > 100 µM
TGI (NCI-H226 lung): > 100 µM
TGI (NCI-H23 lung): > 100 µM
TGI (NCI-H460 lung): > 100 µM
TGI (NCI-H522 lung): > 100 µM
TGI (NCI/ADR-RES ovarian): > 100 µM
TGI (OVCAR-3 ovarian): > 100 µM
TGI (OVCAR-4 ovarian): > 100 µM
TGI (OVCAR-5 ovarian): > 100 µM
TGI (OVCAR-8 ovarian): > 100 µM
TGI (PC-3 prostate): > 100 µM
TGI (RPMI-8226 leukemia): > 100 µM
TGI (RXF 393 renal): > 100 µM
TGI (SF-268 CNS): > 100 µM
TGI (SF-295 CNS): > 100 µM
TGI (SF-539 CNS): > 100 µM
TGI (SK-MEL-2 melanoma): > 100 µM
TGI (SK-MEL-28 melanoma): > 100 µM
TGI (SK-MEL-5 melanoma): > 100 µM
TGI (SK-OV-3 ovarian): > 100 µM
TGI (SN12C renal): > 100 µM
TGI (SNB-19 CNS): > 100 µM
TGI (SNB-75 CNS): > 100 µM
TGI (SR leukemia): > 100 µM
TGI (SW-620 colon): > 100 µM
TGI (T-47D breast): > 100 µM
TGI (TK-10 renal): > 100 µM
TGI (U251 CNS): > 100 µM
TGI (UACC-257 melanoma): > 100 µM
TGI (UACC-62 melanoma): > 100 µM
TGI (UO-31 renal): > 100 µM

CO/C(=N\N=C\c1ccc(C(F)(F)F)cc1)c1ccncc1
TGI (786-0 renal): > 10 µM
TGI (A549 NSCLC): > 10 µM
TGI (ACHN renal): > 10 µM
TGI (BT-549 breast): > 10 µM
TGI (CAKI-1 renal): > 10 µM
TGI (CCRF-CEM leukemia): > 10 µM
TGI (COLO 205 colon): > 10 µM
TGI (DU-145 prostate): > 10 µM
TGI (EKVX NSCLC): > 10 µM
TGI (HCC-2998 colon): > 10 µM
TGI (HCT-116 colon): > 10 µM
TGI (HCT-15 colon): > 10 µM
TGI (HL-60(TB) leukemia): > 10 µM
TGI (HOP-62 NSCLC): > 10 µM
TGI (HOP-92 NSCLC): > 10 µM
TGI (HT29 colon): > 10 µM
TGI (K-562 leukemia): > 10 µM
TGI (KM12 colon): > 10 µM
TGI (LOX IMVI melanoma): > 10 µM
TGI (M14 melanoma): > 10 µM
TGI (MALME-3M melanoma): > 10 µM
TGI (MCF7 breast): > 10 µM
TGI (MDA-MB-231 breast): > 10 µM
TGI (MDA-MB-435): > 10 µM
TGI (MDA-N): > 10 µM
TGI (MOLT-4 leukemia): > 10 µM
TGI (NCI-H226 lung): > 10 µM
TGI (NCI-H23 lung): > 10 µM
TGI (NCI-H460 lung): > 10 µM
TGI (NCI-H522 lung): > 10 µM
TGI (NCI/ADR-RES ovarian): > 10 µM
TGI (OVCAR-3 ovarian): > 10 µM
TGI (OVCAR-4 ovarian): > 10 µM
TGI (OVCAR-5 ovarian): > 10 µM
TGI (OVCAR-8 ovarian): > 10 µM
TGI (PC-3 prostate): > 10 µM
TGI (RPMI-8226 leukemia): > 10 µM
TGI (RXF 393 renal): > 10 µM
TGI (SF-268 CNS): > 10 µM
TGI (SF-295 CNS): > 10 µM
TGI (SK-MEL-2 melanoma): > 10 µM
TGI (SN12C renal): > 10 µM
TGI (SNB-19 CNS): > 10 µM
TGI (SR leukemia): > 10 µM
TGI (SW-620 colon): > 10 µM
TGI (T-47D breast): > 10 µM
TGI (TK-10 renal): > 10 µM
TGI (U251 CNS): > 10 µM
TGI (UACC-257 melanoma): > 10 µM
TGI (UO-31 renal): > 10 µM
